Measurements published in ChEMBL document CHEMBL1158597, “Investigation of Beckett-Casy model 2: synthesis of novel 15-16 nornaltrexone derivatives and their pharmacology” (Bioorg Med Chem Lett, 2010).

Tests used:
Mu-type opioid receptor = Mu-type opioid receptor (Cavia porcellus, UniProt P97266); assay: Displacement of [3H]DAMGO from mu opioid receptor in Hartley guinea pig forebrain by liquid scintillation counting
[1] = target: Kappa-type opioid receptor (Cavia porcellus, UniProt P41144); assay: Displacement of [3H][…] from kappa opioid receptor in Hartley guinea pig cerebellum by liquid scintillation counter; type: tissue-based
[2] = Displacement of [3H]NTI from delta opioid receptor in Hartley guinea pig forebrain by liquid scintillation counter; design: species or system Cavia porcellus

Sequence of Mu-type opioid receptor (P97266 whole entry): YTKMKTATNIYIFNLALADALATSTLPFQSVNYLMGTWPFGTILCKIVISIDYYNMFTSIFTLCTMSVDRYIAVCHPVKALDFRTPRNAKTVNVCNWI
Sequence of Kappa-type opioid receptor (P41144 whole entry): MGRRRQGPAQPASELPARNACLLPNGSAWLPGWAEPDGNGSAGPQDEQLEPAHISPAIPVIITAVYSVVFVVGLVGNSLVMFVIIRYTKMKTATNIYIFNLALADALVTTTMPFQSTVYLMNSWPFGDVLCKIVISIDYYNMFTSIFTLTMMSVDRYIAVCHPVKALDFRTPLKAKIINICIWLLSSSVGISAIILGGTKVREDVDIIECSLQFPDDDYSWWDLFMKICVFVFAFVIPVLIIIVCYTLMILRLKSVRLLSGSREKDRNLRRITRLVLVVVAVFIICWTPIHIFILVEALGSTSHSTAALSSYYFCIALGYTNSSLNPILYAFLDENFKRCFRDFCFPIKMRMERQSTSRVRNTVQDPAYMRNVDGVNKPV

## CN(C)[C@@H]1Cc2ccc(O)c3c2[C@H]2[C@@H](O3)C(=O)CC[C@]21O
Mu-type opioid receptor
  Ki: 8.95 nM
[1]
  IC50: > 1000 nM
[2]
  IC50: > 1000 nM

## O=C1CC[C@]23OCCN4CC[C@@]25c2c(ccc(O)c2O[C@@H]15)C[C@@H]43
Mu-type opioid receptor
  Ki: 86 nM
[1]
  Ki: 72.6 nM
[2]
  IC50: > 1000 nM

## CN(C)[C@@H]1Cc2ccc(O)c3c2[C@@H]2[C@H]1CCC(=O)[C@@H]2O3
Mu-type opioid receptor
  Ki: 50.9 nM
[1]
  IC50: > 1000 nM
[2]
  IC50: > 1000 nM

## CN(CC1CC1)[C@@H]1Cc2ccc(O)c3c2[C@H]2[C@@H](O3)C(=O)CC[C@]21O
Mu-type opioid receptor
  Ki: 1.17 nM
[1]
  Ki: 5.1 nM
[2]
  Ki: 55.2 nM

## CN[C@@H]1Cc2ccc(O)c3c2[C@H]2[C@@H](O3)C(=O)CC[C@@]12O
Mu-type opioid receptor
  Ki: 118 nM
[1]
  IC50: > 1000 nM
[2]
  IC50: > 1000 nM

## CN[C@@H]1Cc2ccc(O)c3c2[C@@H]2[C@H]1CCC(=O)[C@@H]2O3
Mu-type opioid receptor
  Ki: 164 nM
[1]
  IC50: > 1000 nM
[2]
  IC50: > 1000 nM

## O=C1CC[C@@]2(O)[C@H](NCC3CC3)Cc3ccc(O)c4c3[C@H]2[C@H]1O4
Mu-type opioid receptor
  Ki: 24.7 nM
[1]
  Ki: 68.4 nM
[2]
  IC50: > 1000 nM

## CN(CC1CC1)[C@@H]1Cc2ccc(O)c3c2[C@@H]2[C@H]1CCC(=O)[C@@H]2O3
Mu-type opioid receptor
  Ki: 3.36 nM
[1]
  Ki: 8.81 nM
[2]
  Ki: 272 nM

## O=C1CC[C@@]23OCCN(CC4CC4)[C@@H]2Cc2ccc(O)c4c2[C@H]3[C@H]1O4
Mu-type opioid receptor
  Ki: 294 nM
[1]
  IC50: > 1000 nM
[2]
  IC50: > 1000 nM

## CN1CCO[C@@]23CCC(=O)[C@@H]4Oc5c(O)ccc(c5[C@@H]42)C[C@@H]13
Mu-type opioid receptor
  IC50: > 1000 nM
[1]
  IC50: > 1000 nM
[2]
  IC50: > 1000 nM

## O=C1CC[C@@H]2[C@H]3c4c(ccc(O)c4O[C@@H]13)C[C@H]2NCC1CC1
Mu-type opioid receptor
  Ki: 30.3 nM
[1]
  Ki: 32.2 nM
[2]
  IC50: > 1000 nM
